Laboratory results published in patent US8715709B2, “Sustained release intraocular implants and methods for treating ocular neuropathies” (Allergan, Inc., priority 2004, dated 2014).
Where a name gives a salt, the structure may show the parent alone. Read-outs that look alike come from different tables or passages of the source.

What was measured:
[1] = aqueous / dissolution medium (0.9% saline), cited from earlier work
[2] = in vivo; conditions: rabbit
Excerpt: Sampling was done from the anterior chamber for the first five animals after 1 hr, 3 hr, 6 hr, 12 hr, and 24 hr, and from both the anterior chamber and posterior segment of the remaining five animals after 1 hr, 3 hr, 6 hr, 24 hr, and 48 hr. One animal was used for each time point.

Row | Compound | solubility in aqueous medium (in words) ([1]; listed as timolol maleate) | clearance in the posterior segment compared with anterior chamber (in words) [2] | half-life [2] | levels in the anterior chamber from posterior segment bolus injection (in words) [2] | solubility in aqueous medium (in words) [1]
1 | CC(C)(C)NC[C@H](O)COc1nsnc1N1CCOCC1 [Timolol Maleate, (−)-1-(tert-butylamino)-3-[(4-morpholino-1,2,5-thiadiazo-3-yl)oxy]-2-propanol maleate, (1:1) salt] | high water solubility | relatively slower clearance rate | ~1.43 h | the levels were small and considered insignificant | –
2 | CC(C)(C)NC[C@H](O)COc1nsnc1N1CCOCC1 [Timolol freebase] | – | – | – | – | less soluble
